This passage reports IC50 and Activity results from ChEMBL document CHEMBL1137256, “Iminosugars as potential inhibitors of glycogenolysis: structural insights into the molecular basis of glycogen phosphorylase inhibition” (J Med Chem, 2006).

Calls of active or inactive are those of the source. The calls are words filed in the database; no cut-off is given here.

The target of assay [1] is T1, Glycogen phosphorylase, liver form (Rattus norvegicus, UniProt P09811).
T1 sequence (P09811 whole entry): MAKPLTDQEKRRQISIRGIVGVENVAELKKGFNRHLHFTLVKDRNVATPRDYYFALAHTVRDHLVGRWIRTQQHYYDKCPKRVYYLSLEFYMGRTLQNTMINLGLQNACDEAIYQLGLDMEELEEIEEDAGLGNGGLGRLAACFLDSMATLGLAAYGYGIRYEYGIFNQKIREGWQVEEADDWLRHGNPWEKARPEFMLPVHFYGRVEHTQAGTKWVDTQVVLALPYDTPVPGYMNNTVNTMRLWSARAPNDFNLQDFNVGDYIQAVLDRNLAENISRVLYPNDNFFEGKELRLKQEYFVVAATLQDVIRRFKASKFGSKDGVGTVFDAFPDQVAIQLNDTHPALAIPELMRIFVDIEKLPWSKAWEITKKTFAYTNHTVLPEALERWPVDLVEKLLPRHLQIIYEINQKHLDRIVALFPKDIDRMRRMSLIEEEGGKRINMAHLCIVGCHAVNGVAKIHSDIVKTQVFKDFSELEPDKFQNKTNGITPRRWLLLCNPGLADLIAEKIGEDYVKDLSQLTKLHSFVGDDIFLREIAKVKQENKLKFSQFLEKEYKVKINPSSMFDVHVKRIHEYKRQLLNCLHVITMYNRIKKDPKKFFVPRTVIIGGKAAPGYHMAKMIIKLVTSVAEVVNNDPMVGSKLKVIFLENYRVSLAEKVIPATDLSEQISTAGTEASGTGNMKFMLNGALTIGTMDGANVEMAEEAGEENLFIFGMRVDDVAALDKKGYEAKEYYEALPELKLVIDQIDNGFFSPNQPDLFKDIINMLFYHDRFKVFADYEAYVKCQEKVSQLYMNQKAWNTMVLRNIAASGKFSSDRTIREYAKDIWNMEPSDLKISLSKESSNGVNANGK
In words: Inhibition of phosphorylated form of rat liver glycogen phosphorylase.

The test system of assay [2] is Hepatocyte. The assay can be described thus: cells. The note with it: Homo sapiens.
Description: Inhibition of glycogen degradation in hepatocytes
Assay [3] concerns Hepatocyte. In words: cells. The note with it: Homo sapiens. This is another data set of the same source.
Description: Inhibition of glucagon-stimulated glycogen degradation in hepatocytes
The species named for the next assay is Mus musculus. The assay can be described thus: Antihyperglycemic activity in obese mouse. Type of assay: functional, organism-based.
The test system of a further assay is Liver. The assay can be described thus: Inhibition of liver […]. The note with it: Homo sapiens. Type of assay: functional, tissue-based.

For orientation: IC50 means the concentration that gives 50% inhibition. Read a high IC50 as lower potency.

For `OC[C@H]1CN(CCCc2ccccc2)C[C@@H](O)[C@@H]1O`, in assay [1], the IC50 was 1220 nM. In other words, the single-digit micromolar range.
In the case of `OC[C@H]1CNC[C@@H](O)[C@@H]1O` [AFEGOSTAT], the IC50 in the assay on Hepatocyte [2] was 3000 nM; in the assay on Hepatocyte [3], 2000 nM.
On to `OC[C@H]1NC[C@@H](O)[C@@H]1O`, for which the result in the assay filed under Mus musculus and with Liver was Active.
